Measured values reported in patent US20250115598A1 (Anaxis Pharma Pty Ltd, priority 2021, published 2025).
Like-named read-outs stand apart in the source and are kept apart here.

How the values were obtained:
human RIPK1 = human RIPK1 (Homo sapiens (Human), UniProt Q13546); assay: KINOMEscan binding assay, human RIPK1; conditions: Table 21
In short: (§1)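 Binding constants were derived by fitting qPCR-quantified bead-retained kinase against compound concentration to the Hill equation, slope set at −1. Compound series were 3-fold over 11 points with 1% DMSO; most top concentrations were 30,000 nM. Kinases were T7-phage-tagged or HEK-293-produced with DNA tags.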

human MLKL (full length) = human MLKL (full length) (Homo sapiens (Human), UniProt Q8NB16); assay: KINOMEscan binding assay, human MLKL (full length)
In short: as §1

human RIPK3 = human RIPK3 (Homo sapiens (Human), UniProt Q9Y572); assay: KINOMEscan binding assay, human RIPK3; conditions: Table 21
In short: as §1

[1] = system: Immortalised Mouse Dermal Fibroblasts (MDFs); assay: Cellular assay: inhibition of TSI induced necroptosis, CellTitre-Glo viability; conditions: Mus musculus, Fibroblast, MDF, 3 hours TSI cocktail, read-out: Inhibition of TSI-induced necroptosis (IC50 cell-based assay) in MDF
Description: Cellular Assay: Screening Compounds for Inhibition of TSI Induced Necroptosis in, 384 Well Plate Format.
• Cell Line ID: Immortalised Mouse Dermal Fibroblasts (MDFs). • Cell Concentration (cells/well): Final cell density is 2200 cells per well. • Cell growth medium: DMEM medium+7.4% Fetal Bovine Serum (FBS). Cells are cultured in Corning 150 cm^2 tissue culture flasks with vented caps at 37° C./10% CO2. • Incubation: Plates were incubated for 30 minutes following addition of compounds and then 3 hours incubation with death stimuli (TSI cocktail) at 37° C./10% CO2 in a humidified incubator. • Compound concentration: 36 μM starting concentration, 1:3 dilution, 10 point • DMSO final concentration (% v/v): 0.3%. Compounds in TSI Cocktail (T: TNF; S: Smac Mimetic; I: IDN-6556) and their Final Concentrations: • rhTNF (100 ng/ml) • Compound a (500 nM)—Smac Mimetic, Tetralogic and SYNthesis Med Chem • IDN-6556 (10 μM)—Selleckchem (S7775)
The cellular assay was carried out according to the following steps: • 1. Each well was prepared by sequential addition of: • a. 40 μL of cell suspension (5.5×10^4 cells/mL) was added to each well to provide a final cell concentration of 2,200 cells per well. • b. After 24 hours, DMSO (control; columns 1-2 and 23-24) or compound in DMSO—addition was performed using acoustic transfer of nL volumes of stock compound to give final test concentrations of 36, 12, 4, 1.3, 0.44, 0.148, 0.049, 0.016, 0.005 and 0.002 μM. All wells were backfilled with DMSO to a final total volume in the well of 100 nL. • c. Following compound/DMSO addition in step (b), Plates were incubated for 30 minutes at 37° C./10% CO2 in a humidified incubator and then 10 μL of 5×TSI cocktail (except to positive controls; columns 2 and 24) was added to each well. • 2. After 3 hours, plate was removed from the 37° C. incubator and equilibrated to room temperature for 15 minutes. • 3. 15 μL of room temperatured CellTitre-Glo2™ (Promega™) was added to each well. • 4. Shook plates for 2 minutes (˜600 rpm) and incubated at room temperature for 15 minutes to allow signal to stabilise. • 5. Read luminescence readout on a plate reader.
Percent viability was calculated for each compound according to equation (2):
[formula] • Wherein RawData is the readout of any cell containing a compound of the invention.
TA is the total activity provided by the luminescence readout from DMSO only wells (columns 2 and 24)=100% viability.
NSA is the non-specific activity provided by DMSO+TSI wells (columns 1 and 23)=0% viability • Curve fitting: 10-point titration curves are fitted with the 4-parameter logistic nonlinear regression model and the IC50 reported is the inflection point of the curve • Analysis: Data was loaded into Dotmatics™ and visualised using the Tibco@ • Spotfire™ software. 10 point titration curves were fitted with the 4 parameter logistic nonlinear regression model and the IC50 reported reflect the inflection point of the curve for curve fitting.
Assay involving the TSI cocktail (T: TNF; S: Smac mimetic; I: IDN-6556): TSI treatment ensures that cells specifically undergo necroptotic cell death. TNF activates the TNF receptor, Smac mimetic directs the signal away from proinflammatory signaling and toward the RIPK1/RIPK3-mediated cell death pathways, and IDN-6556 (Caspase inhibitor) ensures that the apoptotic response is blocked leaving only the programmed necrosis response. The compounds' activity (solution in DMSO) tested in this TSI-induced assay was evaluated by determining the number of viable cells in culture by measuring the amount of ATP present as measured by CelltiterGlo.

[2] = KINOMEscan, Table 21, read-out: Human MLKL (full-length) (KD)
[3] = hMLKL, Table 25, read-out: MLKL (KD)

human RIPK3, sequence (Q9Y572 whole entry): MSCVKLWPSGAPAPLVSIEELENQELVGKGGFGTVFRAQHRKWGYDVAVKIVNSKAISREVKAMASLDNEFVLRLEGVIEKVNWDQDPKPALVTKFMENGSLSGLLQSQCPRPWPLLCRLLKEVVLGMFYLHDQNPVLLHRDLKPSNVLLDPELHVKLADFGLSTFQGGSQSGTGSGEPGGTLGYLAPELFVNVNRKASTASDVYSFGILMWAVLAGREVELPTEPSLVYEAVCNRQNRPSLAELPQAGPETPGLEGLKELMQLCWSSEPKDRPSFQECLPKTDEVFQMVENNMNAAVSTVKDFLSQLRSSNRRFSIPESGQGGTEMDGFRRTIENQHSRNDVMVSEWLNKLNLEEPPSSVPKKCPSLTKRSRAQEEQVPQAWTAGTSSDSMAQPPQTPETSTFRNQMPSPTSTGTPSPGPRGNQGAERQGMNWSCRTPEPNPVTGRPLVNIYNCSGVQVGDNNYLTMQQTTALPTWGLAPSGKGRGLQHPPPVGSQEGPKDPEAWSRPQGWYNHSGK
human MLKL (full length), sequence (Q8NB16 whole entry): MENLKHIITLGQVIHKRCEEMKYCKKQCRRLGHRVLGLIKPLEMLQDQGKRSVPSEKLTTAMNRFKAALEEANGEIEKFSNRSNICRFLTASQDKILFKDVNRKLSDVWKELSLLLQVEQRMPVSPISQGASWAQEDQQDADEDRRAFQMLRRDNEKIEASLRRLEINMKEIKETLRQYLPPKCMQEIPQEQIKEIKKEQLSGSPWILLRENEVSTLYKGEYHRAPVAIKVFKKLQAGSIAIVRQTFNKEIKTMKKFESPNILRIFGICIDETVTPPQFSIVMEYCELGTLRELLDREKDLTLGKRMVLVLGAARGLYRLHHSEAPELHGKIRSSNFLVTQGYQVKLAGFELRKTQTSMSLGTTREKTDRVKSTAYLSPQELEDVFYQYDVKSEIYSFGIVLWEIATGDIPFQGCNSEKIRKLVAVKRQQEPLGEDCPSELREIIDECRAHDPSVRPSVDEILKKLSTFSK
human RIPK1, sequence (Q13546 whole entry): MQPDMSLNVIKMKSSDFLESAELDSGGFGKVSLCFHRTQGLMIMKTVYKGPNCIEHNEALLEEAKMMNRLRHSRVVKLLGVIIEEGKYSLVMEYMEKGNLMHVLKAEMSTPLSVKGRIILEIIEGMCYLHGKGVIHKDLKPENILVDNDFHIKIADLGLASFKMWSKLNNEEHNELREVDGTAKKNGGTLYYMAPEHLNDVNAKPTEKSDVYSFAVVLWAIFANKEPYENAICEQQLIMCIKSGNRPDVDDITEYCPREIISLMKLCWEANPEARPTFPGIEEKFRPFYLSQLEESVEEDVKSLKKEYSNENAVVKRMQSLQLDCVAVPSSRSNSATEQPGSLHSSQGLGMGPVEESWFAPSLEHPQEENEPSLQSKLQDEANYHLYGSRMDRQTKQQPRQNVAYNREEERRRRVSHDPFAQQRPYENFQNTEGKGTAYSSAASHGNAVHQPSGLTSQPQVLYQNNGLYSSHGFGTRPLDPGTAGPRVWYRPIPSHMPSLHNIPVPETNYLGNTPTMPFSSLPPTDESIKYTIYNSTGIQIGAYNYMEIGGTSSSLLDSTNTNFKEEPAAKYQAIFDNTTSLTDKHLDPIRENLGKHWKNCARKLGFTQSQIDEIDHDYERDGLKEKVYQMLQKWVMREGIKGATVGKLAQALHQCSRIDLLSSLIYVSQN

| Kd (human RIPK1) [µM] | Kd (human MLKL (full length); [2]) [µM] | Kd (human RIPK3) [µM] | Kd (human MLKL (full length); [3]) [µM] | Compound | IC50 ([1]; Table 24) [µM] | IC50 ([1]; Table 27) [µM] |
| --- | --- | --- | --- | --- | --- | --- |
| > 10 |  | > 10 |  | C[C@H](Oc1cc(-c2nn(C)c3c(-c4cnn(C5CCN(C)C(C(F)(F)F)C5)c4)cnc(N)c23)ccc1NS(=O)(=O)C(F)F)c1ccc(F)cc1 (stereo partly drawn) [Compound 148, N-(4-(4-amino-1-methyl-7-(1-(1-methyl-2-(trifluoromethyl)piperidin-4-yl)-1H-pyrazol-4-yl)-1H-pyrazolo[4,3-c]pyridin-3-yl)-2-((S)-1-(4-fluorophenyl)eth-oxy)phenyl)-1,1-difluoromethane-sulfonamide] | < 1 |  |
|  |  |  | < 0.01 | C[C@H](Oc1cc(-c2nn(C)c3c(-c4cnn(C5CCN(C(=O)c6ccc7c(N8CCC(=O)NC8=O)coc7c6)CC5)c4)cnc(N)c23)ccc1NS(=O)(=O)C(F)F)c1ccc(F)cc1 [Compound 1117, N-{4-[4-amino-7-(1-{1-[3-(2,4-dioxo-1,3-diazinan-1-yl)-1-benzofuran-6-carbonyl]piperidin-4-yl}-1H-pyrazol-4-yl)-1-methyl-1H-pyrazolo[4,3-c]pyridin-3-yl]-2-[(1S)-1-(4-fluorophenyl)ethoxy]phenyl}-1,1-difluoromethanesulfonamide] |  | 1 to 10 |
|  |  |  | < 0.01 | C[C@H](Oc1cc(-c2nn(C)c3c(-c4cnn(C5CCN(CCc6cccc7c6C(=O)N(C6CCC(=O)NC6=O)C7=O)CC5)c4)cnc(N)c23)ccc1NS(=O)(=O)C(F)F)c1ccc(F)cc1 (stereo partly drawn) [Compound 1136, N-(4-{4-amino-7-[1-(1-{2-[2-(2,6-dioxopiperidin-3-yl)-1,3-dioxo-2,3-dihydro-1H-isoindol-4-yl]ethyl}piperidin-4-yl)-1H-pyrazol-4-yl]-1-methyl-1H-pyrazolo[4,3-c]pyridin-3-yl}-2-[(1S)-1-(4-fluorophenyl)ethoxy]phenyl)-1,1-difluoromethanesulfonamide] |  | 1 to 10 |

More lines, now with the values behind:

| Compound | Kd (human RIPK1) [µM] | Kd (human MLKL (full length); [2]) [µM] | Kd (human RIPK3) [µM] | Kd (human MLKL (full length); [3]) [µM] | IC50 ([1]; Table 24) [µM] | IC50 ([1]; Table 27) [µM] |
| --- | --- | --- | --- | --- | --- | --- |
| C[C@H](Oc1cc(-c2nn(C)c3c(C#CC4CCN(C)CC4)cnc(N)c23)ccc1NS(=O)(=O)C(F)F)c1ccc(F)cc1 [Compound 80, (S)—N-(4-(4-amino-1-methyl-7-((1-methylpiperidin-4-yl)ethynyl)-1H-pyrazolo[4,3-c]pyridin-3-yl)-2-(1-(4-fluorophenyl)ethoxy)phenyl)-1,1-difluoromethanesulfonamide] | > 10 | < 0.001 | > 10 |  | < 1 |  |
| C[C@H](Oc1cc(-c2nn(C)c3c(-c4cnn(C5CCC(C)(C)N(C)C5)c4)cnc(N)c23)ccc1NS(=O)(=O)C(F)F)c1ccc(F)cc1 (stereo partly drawn) [Compound 104, N-(4-{4-amino-1-methyl-7-[1-(1,6,6-trimethylpiperidin-3-yl)-1H-pyrazol-4-yl]-1H-pyrazolo[4,3-c]pyridin-3-yl}-2-[(1 S)-1-(4-fluorophenyl)ethoxy]phenyl)-1,1-difluoromethanesulfonamide] | > 10 | < 0.001 | > 10 |  | < 1 |  |
| CC1C(n2cc(-c3cnc(N)c4c(-c5ccc(NS(=O)(=O)C(F)F)c(O[C@@H](C)c6ccc(F)cc6)c5)nn(C)c34)cn2)CN1C (stereo partly drawn) [Compound 147, N-(4-(4-amino-7-(1-(1,2-dimethylazetidin-3-yl)-1H-pyrazol-4-yl)-1-methyl-1H-pyrazolo[4,3-c]pyridin-3-yl)-2-((S)-1-(4-fluorophenyl)ethoxy)phenyl)-1,1-difluoromethanesulfonamide] | > 10 |  | > 10 |  | < 1 |  |
| C[C@H](Oc1cc(-c2nn(C)c3c(-c4cnn(C5CC6CCC(C5)N6CC(F)(F)F)c4)cnc(N)c23)ccc1NS(=O)(=O)C(F)F)c1ccc(F)cc1 (stereo partly drawn) [Compound 153, N-(4-(4-amino-1-methyl-7-(1-(8-(2,2,2-trifluoroethyl)-8-azabicyclo[3.2.1]octan-3-yl)-1H-pyrazol-4-yl)-1H-pyrazolo[4,3-c]pyridin-3-yl)-2-((S)-1-(4-fluorophenyl)ethoxy)phenyl)-1,1-difluoromethanesulfonamide] | > 10 |  | > 10 |  | < 1 |  |
